Target: T1, Prostaglandin G/H synthase 1 (Mus musculus, UniProt P22437)
T1 sequence (P22437 whole entry): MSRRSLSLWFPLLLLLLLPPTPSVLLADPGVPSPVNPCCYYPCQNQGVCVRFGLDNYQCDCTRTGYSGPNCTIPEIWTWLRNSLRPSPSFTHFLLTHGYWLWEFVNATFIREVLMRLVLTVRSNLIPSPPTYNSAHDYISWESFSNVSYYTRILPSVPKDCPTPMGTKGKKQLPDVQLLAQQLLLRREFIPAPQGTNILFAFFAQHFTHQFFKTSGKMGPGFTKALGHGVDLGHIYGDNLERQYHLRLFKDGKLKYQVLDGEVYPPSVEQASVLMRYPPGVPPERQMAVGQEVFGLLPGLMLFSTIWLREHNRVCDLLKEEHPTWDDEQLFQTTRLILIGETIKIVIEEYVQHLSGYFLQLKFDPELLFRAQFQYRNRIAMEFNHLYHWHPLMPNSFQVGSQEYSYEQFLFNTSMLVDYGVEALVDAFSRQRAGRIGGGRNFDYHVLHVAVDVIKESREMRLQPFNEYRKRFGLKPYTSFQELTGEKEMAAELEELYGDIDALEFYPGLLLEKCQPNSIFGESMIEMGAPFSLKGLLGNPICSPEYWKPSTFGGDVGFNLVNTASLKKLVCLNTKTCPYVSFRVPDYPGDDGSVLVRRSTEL
Description: In vitro inhibitory activity against Prostaglandin G/H synthase 1 in murine J774 cells

IC50, > 100 µM:
CCOC(=O)C(=O)c1cc(-c2ccc(S(C)(=O)=O)cc2)n(-c2ccc(C)cc2)c1C, CCOC(=O)Cc1cc(-c2ccc(S(C)(=O)=O)cc2)n(-c2ccccc2)c1C, Cc1c(CC(=O)O)cc(-c2ccc(S(C)(=O)=O)cc2)n1-c1ccccc1, CCOC(=O)Cc1cc(-c2ccc(S(C)(=O)=O)cc2)n(-c2ccc(C(F)(F)F)cc2)c1C, Cc1c(CC(=O)O)cc(-c2ccc(S(C)(=O)=O)cc2)n1-c1ccc(C(F)(F)F)cc1, CCOC(=O)C(=O)c1cc(-c2ccc(S(C)(=O)=O)cc2)n(-c2ccccc2)c1C, CCOC(=O)Cc1cc(-c2ccc(S(C)(=O)=O)cc2)n(-c2ccc(C)cc2)c1C, CCOC(=O)C(=O)c1cc(-c2ccc(S(C)(=O)=O)cc2)n(-c2ccc(C(F)(F)F)cc2)c1C, Cc1ccc(-n2c(-c3ccc(S(C)(=O)=O)cc3)cc(CC(=O)O)c2C)cc1

Source: ChEMBL document CHEMBL1144428 (J Med Chem, 2005)
